Melting point and Ki data for 15 compounds are collected here from patent US10227344B2, “CK2 inhibitors, compositions and methods thereof” (Polaris Pharmaceuticals, Inc., priority 2016, dated 2019).

Counter-ions that a name gives are not always drawn.

For one series, the target named is purified CK2α enzyme (Homo sapiens, UniProt P68400). The series is described as follows: CK2 Protein Kinase Inhibition Assay (coupled PK/LDH assay). It counts as biochemical. The settings on record: CK2 enzyme 25 nM, 100 μM ATP, 37° C., Morrison equation. Put shortly: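 Purified CK2α at 25 nM final, 1.5 mM peptide substrate, 100 μM ATP, pH 8.25 Tris buffer; compounds pre-incubated 10 min at 37° C. ADP coupled via PK/LDH to NADH loss at 340 nm over 30 min, 37° C. Ki from rate versus concentration by Morrison equation, triplicate points.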
purified CK2α enzyme, sequence (P68400 whole entry): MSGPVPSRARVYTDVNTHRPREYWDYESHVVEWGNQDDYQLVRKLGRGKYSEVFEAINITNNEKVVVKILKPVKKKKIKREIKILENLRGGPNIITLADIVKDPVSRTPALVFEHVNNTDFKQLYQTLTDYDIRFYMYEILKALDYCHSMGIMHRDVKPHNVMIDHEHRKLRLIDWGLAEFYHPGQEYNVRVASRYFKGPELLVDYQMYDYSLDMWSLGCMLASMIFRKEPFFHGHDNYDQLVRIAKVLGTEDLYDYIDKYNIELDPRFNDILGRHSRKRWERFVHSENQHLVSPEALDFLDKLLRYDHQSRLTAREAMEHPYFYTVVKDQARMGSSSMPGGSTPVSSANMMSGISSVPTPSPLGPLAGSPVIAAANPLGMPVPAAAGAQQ

Usually melting point stands for the temperature, or range, at which the solid turns liquid. Regarding `C[S+]([O-])Cc1cc(Nc2cc(NC3CC3)n3ncc(C#N)c3n2)ccc1C1=CCNC1` (racemic) (as salt: trifluoroacetic acid salt) [Example 62, (±)-7-(Cyclopropylamino)-5-((4-(2,5-dihydro-1H-pyrrol-3-yl)-3-((methylsulfinyl)methyl)phenyl)amino)pyrazolo[1,5-a]pyrimidine-3-carbonitrile mono trifluoroacetic acid salt], the melting point lay within 147 to 151 °C.

As for `C[S+]([O-])Cc1cc(Nc2cc(NC3CC3)n3ncc(C#N)c3n2)ccc1C1CCNC1` (racemic) (as salt: trifluoroacetic acid salt) [Example 63, (±)-7-(Cyclopropylamino)-5-((3-((methylsulfinyl)methyl)-4-((R,S)-pyrrolidin-3-yl)phenyl)amino)pyrazolo[1,5-a]pyrimidine-3-carbonitrile mono trifluoroacetic acid salt], the melting point lay within 173 to 177 °C.

Turning to `CC(CCN)c1ccc(Nc2cc(NC3CC3)n3ncc(C#N)c3n2)cc1C[S+](C)[O-]` (racemic) (as salt: trifluoroacetic acid salt) [Example 64, (±)-5-((4-(R,S)-4-Aminobutan-2-yl)-3-((methylsulfinyl)methyl)phenyl)amino)-7-(cyclopropylamino)pyrazolo[1,5-a]pyrimidine-3-carbonitrile mono trifluoroacetic acid salt], the melting point lay in the range of 119 to 123 °C.

For the compound `CN(CC1(N)CC1)c1ccc(Nc2cc(NC3CC3)n3ncc(C#N)c3n2)cc1C[S+](C)[O-]` (racemic) (as salt: trifluoroacetic acid salt) [Example 65, (±)-5-((4-(((1-Aminocyclopropyl)methyl)(methyl)amino)-3-((methylsulfinyl)methyl)phenyl)amino)-7-(cyclopropylamino)pyrazolo[1,5-a]pyrimidine-3-carbonitrile mono trifluoroacetic acid salt], the melting point is 126 to 130 °C.

In turn, `CN(CC(C)(C)N)c1ccc(Nc2cc(NC3CC3)n3ncc(C#N)c3n2)cc1C[S+](C)[O-]` (racemic) (as salt: trifluoroacetic acid salt) [Example 67, (±)-5-((4-((2-Amino-2-methylpropyl)(methyl)amino)-3-((methylsulfinyl)methyl)phenyl)amino)-7-(cyclopropylamino)pyrazolo[1,5-a]pyrimidine-3-carbonitrile mono trifluoroacetic acid salt] yielded a melting point of 141 to 145 °C.

One may read the Ki as the equilibrium dissociation constant of an inhibitor or competing ligand from its target. Regarding `COc1ccc(Nc2cc(NC3CC3)n3ncc(C#N)c3n2)cc1C[S+](C)[O-]` (racemic) [Example 17, (±)-7-(Cyclopropylamino)-5-((4-methoxy-3-((methylsulfinyl)methyl)phenyl)amino)pyrazolo[1,5-a]pyrimidine-3-carbonitrile], the melting point lay in the range of 227 to 229 °C. Moreover, the inhibition constant Ki on purified CK2α enzyme was less than 2.5 nM.

On to `C[S+]([O-])Cc1cc(Nc2cc(NC3CC3)n3ncc(C#N)c3n2)ccc1OC(F)F` (racemic) [Example 19, (±)-7-(Cyclopropylamino)-5-((4-(difluoromethoxy)-3-((methylsulfinyl)methyl)phenyl)amino)pyrazolo[1,5-a]pyrimidine-3-carbonitrile], for which the melting point lay in the range of 233 to 235 °C. The compound also registered a Ki on purified CK2α enzyme of less than 2.5 nM.

`C[S+]([O-])Cc1cc(Nc2cc(NC3CC3)n3ncc(C#N)c3n2)ccc1OCCN` (racemic) [Example 31, (±)-5-((4-(2-aminoethoxy)-3-((methylsulfinyl)methyl)phenyl)amino)-7-(cyclopropylamino)pyrazolo[1,5-a]pyrimidine-3-carbonitrile] displayed a melting point of 206 to 208 °C. The Ki on purified CK2α enzyme is less than 2.5 nM.

For the compound `CN(C)c1ccc(Nc2cc(NC3CC3)n3ncc(C#N)c3n2)cc1C[S+](C)[O-]` (racemic) [Example 33, (±)-7-(Cyclopropylamino)-5-((4-(dimethylamino)-3-((methylsulfinyl)methyl)phenyl)amino)pyrazolo[1,5-a]pyrimidine-3-carbonitrile], the melting point was 229 to 233 °C. The inhibitory constant (Ki) at purified CK2α enzyme is less than 2.5 nM.

`C[S+]([O-])Cc1cc(Nc2cc(NC3CC3)n3ncc(C#N)c3n2)ccc1N1CCC1` (racemic) [Example 37, (±)-5-((4-(Azetidin-1-yl)-3-((methylsulfinyl)methyl)phenyl)amino)-7-(cyclopropylamino)pyrazolo[1,5-a]pyrimidine-3-carbonitrile] returned a melting point of 204 to 207 °C. The same compound gave a Ki at purified CK2α enzyme of less than 2.5 nM.

For `C[S+]([O-])Cc1cc(Nc2cc(NC3CC3)n3ncc(C#N)c3n2)ccc1C1=CCCNC1.O=C(O)C(F)(F)F` (racemic) [Example 53, (±)-7-(cyclopropylamino)-5-((3-((methylsulfinyl)methyl)-4-(1,2,5,6-tetrahydropyridin-3-yl)phenyl)amino)pyrazolo[1,5-a]pyrimidine-3-carbonitrile mono trifluoroacetic acid salt], the melting point was 126 to 130 °C. The same compound yielded a Ki on purified CK2α enzyme of 2.5 to 10 nM.

Compound `COc1ccc(Nc2cc(NC3CC3)n3ncc(C#N)c3n2)cc1CS(C)(=O)=O` [Example 18, 7-(Cyclopropylamino)-5-((4-methoxy-3-((methylsulfonyl)methyl)phenyl)amino)pyrazolo[1,5-a]pyrimidine-3-carbonitrile] registered a melting point of 233 to 235 °C. Besides, the Ki at purified CK2α enzyme is less than 2.5 nM.

`CS(=O)(=O)Cc1cc(Nc2cc(NC3CC3)n3ncc(C#N)c3n2)ccc1OC(F)F` [Example 20, 7-(Cyclopropylamino)-5-((4-(difluoromethoxy)-3-((methylsulfonyl)methyl)phenyl)amino)pyrazolo[1,5-a]pyrimidine-3-carbonitrile] returned a melting point greater than 260 °C. For the same compound, on purified CK2α enzyme, the Ki is less than 2.5 nM.

The compound `CS(=O)(=O)Cc1cc(Nc2cc(NC3CC3)n3ncc(C#N)c3n2)ccc1OCCN.Cl` [Example 26, 5-((4-(2-aminoethoxy)-3-((methylsulfonyl)methyl)phenyl)amino)-7-(cyclopropylamino)pyrazolo[1,5-a]pyrimidine-3-carbonitrile hydrochloric acid salt] returned a melting point of 238 to 240 °C. Moreover, the Ki on purified CK2α enzyme lay within 2.5 to 10 nM.

Turning to `CS(=O)(=O)Cc1cc(Nc2cc(NC3CC3)n3ncc(C#N)c3n2)ccc1N1CCC1` [Example 32, 5-((4-(Azetidin-1-yl)-3-((methylsulfonyl)methyl)phenyl)amino)-7-(cyclopropylamino)pyrazolo[1,5-a]pyrimidine-3-carbonitrile], the melting point fell in the range of 220 to 222 °C. Moreover, the Ki on purified CK2α enzyme was less than 2.5 nM.
